Molecular target: T1, VvD14c (Vitis vinifera, UniProt A0ACM8QNI4)
T1 construct: gene VIT_18s0001g09140; pET-28b, His-tag, E. coli Rosetta (DE3); VvD14c encodes 267 amino acids
Experiment: surface plasmon resonance (Biacore 8K, CM5 chip, LMW multi-cycle kinetics/affinity)
Format: binding

T1 sequence (A0ACM8QNI4 entry or part of it): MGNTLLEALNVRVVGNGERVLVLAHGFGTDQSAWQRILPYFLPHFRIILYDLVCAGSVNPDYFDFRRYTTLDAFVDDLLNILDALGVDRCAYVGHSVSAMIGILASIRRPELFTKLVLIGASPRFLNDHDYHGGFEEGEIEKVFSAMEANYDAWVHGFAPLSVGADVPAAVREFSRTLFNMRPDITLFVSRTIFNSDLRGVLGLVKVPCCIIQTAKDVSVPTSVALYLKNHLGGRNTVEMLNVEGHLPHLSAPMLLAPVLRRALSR

Kd: 5.65 nM
SMILES: CC1=C[C@@H](O/C=C2/C(=O)O[C@@H]3c4ccccc4C[C@H]23)OC1=O [GR24]
